Consider 26 compounds from ChEMBL document CHEMBL6078669, “Stereoisomers of cannabidiols and their pharmacological activities - A potentially novel direction for cannabinoids” (Bioorg Med Chem, 2025).

Assay [1] has as its target T1, Cannabinoid receptor 1 (Homo sapiens, UniProt P21554). The assay can be described thus: Binding affinity to CB1 receptor (unknown origin) assessed as inhibition constant.
The target in assay [2] is T2, Cannabinoid receptor 1 (Rattus norvegicus, UniProt P20272). Description: Displacement of [3H]HU-243 from Sabra rat brain synaptosome CB1 receptor assessed as inhibition constant. In kind it is subcellular.
T2 sequence (P20272 whole entry): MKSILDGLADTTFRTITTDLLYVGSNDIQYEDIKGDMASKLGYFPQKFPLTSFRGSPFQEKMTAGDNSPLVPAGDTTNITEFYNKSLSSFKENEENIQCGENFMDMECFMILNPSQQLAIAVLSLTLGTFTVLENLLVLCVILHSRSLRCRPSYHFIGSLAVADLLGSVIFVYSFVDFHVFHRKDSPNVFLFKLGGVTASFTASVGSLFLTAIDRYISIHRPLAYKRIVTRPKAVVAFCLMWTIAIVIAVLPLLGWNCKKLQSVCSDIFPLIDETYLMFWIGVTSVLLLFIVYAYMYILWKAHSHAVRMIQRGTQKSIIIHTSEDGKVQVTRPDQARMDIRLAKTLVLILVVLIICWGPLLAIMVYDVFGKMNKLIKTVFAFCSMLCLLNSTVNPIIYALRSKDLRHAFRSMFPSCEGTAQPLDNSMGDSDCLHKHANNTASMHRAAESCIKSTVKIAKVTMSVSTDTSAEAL
Assay [3] addresses T2, Cannabinoid receptor 1. The assay can be described thus: Displacement of [3H]HU-243 from Sabra rat brain synaptosome CB1 receptor assessed as inhibition constant incubated for 90 mins. In kind it is subcellular.
Assay [4] concerns the target T3, Cannabinoid receptor 2 (Homo sapiens, UniProt P34972). Description: Displacement of [3H]HU-243 from CB2 receptor (unknown origin) extracted from green monkey COS-7 cell membrane assessed as inhibition constant incubated for 90 mins. In kind it is cell membranes. (In general: Displacement assays read how much labelled ligand stays bound in the presence of the test substance.)

Assay [5] addresses T3, Cannabinoid receptor 2. Description: Binding affinity to CB2 receptor (unknown origin) assessed as inhibition constant.
A short description of assay [6]: Selectivity ratio of Ki for CB1 receptor (unknown origin) to Ki for CB2 receptor (unknown origin).
Assay [7] concerns the target T1, Cannabinoid receptor 1. The assay can be described thus: Displacement of [3H]CP-55,940 from human CB1 receptor extracted from HEK293 cell membrane assessed as inhibition constant incubated for 90 mins by liquid scintillation spectrophotometric analysis. In kind it is cell membranes.
In assay [8] the target is T3, Cannabinoid receptor 2. Description: Displacement of [3H]CP-55,940 from human CB2 receptor extracted from HEK293 cell membrane assessed as inhibition constant incubated for 90 mins by liquid scintillation spectrophotometric analysis. In kind it is cell membranes.
The species entered for assay [9] is Homo sapiens. The assay can be described thus: Selectivity ratio of Ki for human CB1 receptor extracted from HEK293 cell membrane to Ki for human CB2 receptor extracted from HEK293 cell membrane.
Assay [10] concerns the target Transient receptor potential cation channel subfamily V member 1 (Homo sapiens, UniProt Q8NER1). The assay can be described thus: Agonist activity at human TRPV1 receptor expressed in HEK293 cells assessed as effect on [Ca2+]i preincubated with capsazepine for 30 mins followed by compound addition by Fluo-3 probe based fluorescence analysis. In kind it is cell-based.

Assay [11] can be described thus: Inhibition of [14C]-arachidonoylethanolamide uptake in rat RBL-2H3 cells assessed as increase in AEA level incubated for 5 mins by scintillation counting. Conditions: RBL-2H3, 5 min. In kind it is functional, cell-based.
Assay [12] deals with T4, Fatty-acid amide hydrolase 1 (Mus musculus, UniProt O08914).
T4 sequence (O08914 whole entry): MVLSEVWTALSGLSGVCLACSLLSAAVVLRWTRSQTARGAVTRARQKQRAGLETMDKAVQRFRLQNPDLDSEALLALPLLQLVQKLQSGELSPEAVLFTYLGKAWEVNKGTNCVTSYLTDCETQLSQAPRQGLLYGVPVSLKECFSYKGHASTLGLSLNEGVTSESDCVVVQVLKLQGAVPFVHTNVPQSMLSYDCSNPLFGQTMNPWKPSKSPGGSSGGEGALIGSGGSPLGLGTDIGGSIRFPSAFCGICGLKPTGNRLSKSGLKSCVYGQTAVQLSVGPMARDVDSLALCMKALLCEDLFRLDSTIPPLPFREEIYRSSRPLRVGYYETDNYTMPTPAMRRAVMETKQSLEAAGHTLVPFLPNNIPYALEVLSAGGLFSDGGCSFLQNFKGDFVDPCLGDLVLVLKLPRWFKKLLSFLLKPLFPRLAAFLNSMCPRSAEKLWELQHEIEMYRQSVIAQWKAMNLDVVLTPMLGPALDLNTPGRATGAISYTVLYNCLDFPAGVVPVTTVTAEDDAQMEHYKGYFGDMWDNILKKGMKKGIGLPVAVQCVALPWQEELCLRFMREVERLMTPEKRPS
The assay can be described thus: Inhibition of FAAH-mediated [14C]-AEA hydrolysis in mouse N18TG2 cell membrane incubated for 30 mins by scintillation counting. In kind it is cell membranes.

Assay [13] addresses T1, Cannabinoid receptor 1. The assay can be described thus: Antagonist activity at human CB1 receptor expressed in HEK293T cells co-transfected with pCRE-Luc plasmid preincubated with compound for 30 mins followed by WIN55,212 addition and measured after 6 hrs by Dual-luciferase assay. In kind it is functional, cell-based.
Assay [14] addresses T3, Cannabinoid receptor 2. The assay can be described thus: Agonist activity at human CB2 receptor expressed in HEK293T cells co-transfected with pCRE-Luc plasmid preincubated with compound for 30 mins followed by forskolin addition and measured after 6 hrs by Dual-luciferase assay. In kind it is functional, cell-based.
The target of assay [15] is T2, Cannabinoid receptor 1. Description: Displacement of [3H]CP-55,940 from Sabra rat brain synaptosome CB1 receptor assessed as inhibition constant incubated for 90 mins. In kind it is subcellular.
Assay [16] has as its target T3, Cannabinoid receptor 2. Description: Displacement of [3H]CP-55,940 from human CB2 receptor extracted from CHO cell membrane assessed as inhibition constant incubated for 90 mins. In kind it is cell membranes.
Assay [17] in a line: Selectivity index, ratio of Ki for Sabra rat brain synaptosome CB1 receptor to Ki for human CB2 receptor extracted from CHO cell membrane.
A short description of assay [18]: Selectivity index, ratio of Ki for Sabra rat brain synaptosome CB1 receptor to Ki for CB2 receptor (unknown origin) extracted from green monkey COS-7 cells.

As usually defined, the Ki is a measure of affinity in units of concentration, obtained from inhibition or displacement. In general, EC50 refers to the midpoint of the concentration-response curve. The IC50 is the concentration needed to halve the response being measured.

Values joined by “and” are separate entries in the source; they are usually repeats but may differ in a detail not shown here. Equal entries are not always repeated.

T1 sequence (P21554 whole entry): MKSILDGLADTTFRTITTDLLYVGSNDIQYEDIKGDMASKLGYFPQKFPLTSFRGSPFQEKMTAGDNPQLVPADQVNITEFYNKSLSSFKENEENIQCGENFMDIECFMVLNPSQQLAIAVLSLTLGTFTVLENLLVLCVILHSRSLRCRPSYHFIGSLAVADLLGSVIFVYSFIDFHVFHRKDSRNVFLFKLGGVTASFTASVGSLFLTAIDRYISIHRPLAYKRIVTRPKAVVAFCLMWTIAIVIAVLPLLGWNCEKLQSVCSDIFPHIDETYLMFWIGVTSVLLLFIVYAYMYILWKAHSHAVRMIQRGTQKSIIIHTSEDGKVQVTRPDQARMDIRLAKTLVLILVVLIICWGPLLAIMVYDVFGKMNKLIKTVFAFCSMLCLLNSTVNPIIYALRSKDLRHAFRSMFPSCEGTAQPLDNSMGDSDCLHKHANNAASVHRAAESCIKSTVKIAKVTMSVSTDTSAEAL
T3 sequence (P34972 whole entry): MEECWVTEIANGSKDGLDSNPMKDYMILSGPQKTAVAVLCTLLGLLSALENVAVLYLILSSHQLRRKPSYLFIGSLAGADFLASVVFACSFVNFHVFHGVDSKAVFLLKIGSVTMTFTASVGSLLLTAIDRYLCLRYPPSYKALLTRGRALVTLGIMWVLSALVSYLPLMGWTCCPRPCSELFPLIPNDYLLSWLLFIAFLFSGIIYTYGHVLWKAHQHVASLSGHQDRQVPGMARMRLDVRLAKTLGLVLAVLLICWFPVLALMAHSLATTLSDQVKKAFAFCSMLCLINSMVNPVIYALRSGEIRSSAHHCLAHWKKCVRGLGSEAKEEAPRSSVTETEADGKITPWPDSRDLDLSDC
Transient receptor potential cation channel subfamily V member 1, sequence (Q8NER1 whole entry): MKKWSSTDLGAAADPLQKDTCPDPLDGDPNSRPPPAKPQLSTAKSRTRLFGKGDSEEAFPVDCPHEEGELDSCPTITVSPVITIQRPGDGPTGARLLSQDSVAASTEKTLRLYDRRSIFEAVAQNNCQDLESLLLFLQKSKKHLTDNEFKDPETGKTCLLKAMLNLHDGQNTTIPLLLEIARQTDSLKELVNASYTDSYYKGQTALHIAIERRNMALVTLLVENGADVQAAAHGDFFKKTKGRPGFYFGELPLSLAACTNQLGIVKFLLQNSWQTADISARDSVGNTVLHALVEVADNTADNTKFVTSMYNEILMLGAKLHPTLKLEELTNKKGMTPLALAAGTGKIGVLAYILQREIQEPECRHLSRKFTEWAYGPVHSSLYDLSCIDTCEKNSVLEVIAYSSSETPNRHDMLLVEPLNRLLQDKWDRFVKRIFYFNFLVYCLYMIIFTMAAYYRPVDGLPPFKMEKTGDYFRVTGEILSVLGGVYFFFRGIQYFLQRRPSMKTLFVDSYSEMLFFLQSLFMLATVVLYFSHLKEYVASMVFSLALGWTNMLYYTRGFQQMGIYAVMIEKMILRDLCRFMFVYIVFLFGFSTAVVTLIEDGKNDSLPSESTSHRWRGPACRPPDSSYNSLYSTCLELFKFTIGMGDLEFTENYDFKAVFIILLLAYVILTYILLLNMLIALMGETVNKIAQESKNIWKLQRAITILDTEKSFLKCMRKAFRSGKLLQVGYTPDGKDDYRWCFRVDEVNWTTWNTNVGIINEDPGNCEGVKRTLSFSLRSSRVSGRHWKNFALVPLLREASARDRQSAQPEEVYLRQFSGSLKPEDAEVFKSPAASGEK

Turning to `C=C(C)[C@@H]1CCC(C)=C[C@H]1c1c(O)cc(CCC)cc1O` [CANNABIDIVARIN], the inhibition constant (Ki) in assay [1] was greater than 1000 nM.
Turning to `CCCCCCC(C)(C)c1cc(OC)c([C@H]2C=C(CO)[C@H]3C[C@@H]2C3(C)C)c(OC)c1`, in [2], the Ki was greater than 10000 nM.
Turning to `C=C(C)[C@@H]1CCC(C)=C[C@H]1c1c(OC)cc(C(C)(C)CCCCCC)cc1OC`, the Ki in assay [3] and in [4] was greater than 1000 nM throughout.
Take `COc1cc(C(C)(C)CCCCCCN=C=S)cc(OC)c1[C@H]1C=C(CO)[C@H]2C[C@@H]1C2(C)C`: the Ki was found to be 2670 nM in [1] and 13.1 nM in assay [5]. The Ratio Ki in assay [6] is 203.
On to `C=C(C)[C@H]1CCC(C)=C[C@@H]1c1c(O)cc(CCC)c(C(=O)OC)c1O`, for which the Ki was determined as 345 nM in assay [7] and 28 nM in assay [8]. Besides, in assay [9], the Ratio Ki was 12.3.
Regarding `C=C(C)[C@H]1CCC(C)=C[C@@H]1c1c(O)cc(CCCCC)cc1O`, the concentration for a half-maximal effect (EC50) in [10] amounted to 3200 nM. The IC50 in assay [11] turned out to be 17000 nM; in assay [12], 63500 nM.
Turning to `C=C(C)[C@@H]1CCC(C)=C[C@H]1c1c(O)cc(C(C)(C)CCCCCC)cc1O`, the Ki in assay [3] is greater than 10000 nM; in assay [4] it was 1800 nM. In [11], the IC50 was 14000 nM.
On to `C=C(C)[C@H]1CCC(C)=C[C@@H]1c1c(OC)cc(C(C)(C)CCCCCC)cc1OC`, for which the Ki in assay [3] and in assay [4] was greater than 1000 nM each time.
For `C=C(C)[C@@H]1CCC(CO)=C[C@H]1c1c(O)cc(C(C)(C)CCCCCC)cc1O`, the Ki in assay [3] is no less than 4000 nM; in [4] it was 671 nM. For the same compound, in [11], the IC50 worked out at 12500 nM.
Regarding `COc1cc(C(C)(C)CCCCCCN=C=S)cc(OC)c1[C@@H]1C=C(CO)[C@@H]2C[C@H]1C2(C)C`, the Ki in [1] is greater than 1000 nM; in [5] it was 121 nM.
As to `C=C(C)[C@H]1CCC(C)=C[C@@H]1c1c(O)cc(CCCCC)c(C(=O)OCC(O)CCC)c1O` (stereo partly specified), the half-inhibitory concentration (IC50) in [13] stood at 210 nM. The EC50 in assay [14] worked out at 90 nM.
With `C=C(C)[C@H]1CCC(C)=C[C@@H]1c1c(O)cc(CCCCC)c(C(=O)OCCO)c1O`, in [7], the Ki was found to be 259 nM.
For `C=C(C)[C@H]1CCC(C(=O)O)=C[C@@H]1c1c(O)cc(C(C)(C)CCCCCC)cc1O`, the Ki was determined as 5.8 nM in assay [1] and 155 nM in [5]. The Ratio Ki in assay [6] turned out to be 0.03.
As for `C=C(C)[C@@H]1CCC(C(=O)O)=C[C@H]1c1c(O)cc(C(C)(C)CCCCCC)cc1O`, the Ki in [1] and in [5] was greater than 1000 nM each time.
As to `CCCCCc1cc(O)c([C@H]2C=C(CO)CC[C@@H]2C(C)C)c(O)c1`, the values for the Ki in [15] and in assay [16] were 76.7 nM and 12.1 nM, respectively. Besides, the Ratio Ki in [17] came out at 6.3.
For `CCCCCc1cc(O)c([C@@H]2C=C(CO)CC[C@H]2C(C)C)c(O)c1`, the Ki in assay [15] and in assay [16] was greater than 1000 nM each time.
For the compound `C=C(C)[C@@H]1CCC(C)=C[C@H]1c1c(O)cc(CCCCC)c(C(=O)OC)c1O`, the Ki was 3.1 nM in assay [7] and 0.8 nM in [8]. Also, the Ratio Ki in assay [9] was 3.9.
With `CCCCCCC(C)(C)c1cc(OC)c([C@@H]2C=C(CO)[C@@H]3C[C@H]2C3(C)C)c(OC)c1` [ONTERNABEZ], the inhibition constant Ki in assay [1] was greater than 1000 nM.
On to `C=C(C)[C@H]1CCC(C)=C[C@@H]1c1c(O)cc(C(C)(C)CCCCCC)cc1O`, for which the Ki in [3] turned out to be 17.4 nM; in assay [4], 211 nM. Besides, the IC50 in assay [11] came to 10000 nM.
With `C=C(C)[C@H]1CCC(CO)=C[C@@H]1c1c(O)cc(CCCCC)cc1O`, the Ki in assay [3] is 5.3 nM; in assay [4] it was 101 nM. Besides, the Ratio Ki in assay [18] turned out to be 0.05.
Turning to `C=C(C)[C@@H]1CCC(C(=O)O)=C[C@H]1c1c(O)cc(CCCCC)cc1O`, the Ki in [3] and in assay [4] was greater than 1000 nM throughout.
As to `CCCCCCC(C)(C)c1cc(O)c(-c2c(CO)cccc2C(C)C)c(OC)c1`, the Ki in assay [1] is greater than 1000 nM; in assay [5], 0.64 nM and 0.28 nM. Further, the Ratio Ki in assay [6] amounted to 17.
With `C=C(C)C1CCC(C)=CC1O` (stereo unspecified), the Ki is greater than 1000 nM in [7] and 375 nM in assay [8].
As to `C=C(C)[C@H]1CCC(CO)=C[C@@H]1c1c(O)cc(C(C)(C)CCCCCC)cc1O`, the Ki turned out to be 2.5 nM in assay [3] and 44 nM in [4]. For the same compound, the IC50 in [11] was found to be 7000 nM.
For `C=C(C)[C@@H]1CCC(CO)=C[C@H]1c1c(O)cc(CCCCC)cc1O`, the Ki in assay [3] and in assay [4] was greater than 1000 nM each time.
On to `C=C(C)[C@H]1CCC(C(=O)O)=C[C@@H]1c1c(O)cc(CCCCC)cc1O`, for which the results for the inhibition constant (Ki) in assay [1] and in assay [5] were 13.2 nM and 313 nM, respectively. The Ratio Ki in [6] worked out at 0.04.
